In US20230413823A1, “HYPERLOADED YEAST CELL WALL PARTICLE AND USES THEREOF” (priority 2022, published 2023):
Converted amounts (≈) assume the structure as drawn. Like-named read-outs stand apart in the source and are kept apart here.

Key:
[1] = Payload encapsulation (loading) efficiency in YPs by HPLC; type: physicochemical
Method: Samples of YP-GET (10 μL, 10 mg YP/mL) were stained with Nile red (2 μL, 0.1 mg/mL) and fluorescein labeled concanavalin-A (FITC ConA, 2 μL, 0.1 mg/mL) to qualitatively assess loading by the fluorescence microscopy of the encapsulated fluorescent terpene-Nile red complex in the FITC ConA labeled yeast particle. Nile red was imaged using a rhodamine (red) filter (maxi-mum excitation/emission wavelengths at 550/570 nm) and FITC-ConA was imaged with a green filter at 490/520 nm. Microscopy images were collected with an Olympus BX60 upright compound fluorescent microscope. YP GET samples (100 mg) were centrifuged to collect excess liquid (free terpene and water) and the pellet fraction was resuspended in 10 mL of 90% methanol-10% water to extract encapsulated terpenes. Terpenes were quantified by HPLC operated with 32 KARAT™ software version 7.0 (Beckman Coulter, Inc, Brea, CA, USA), using a Waters […]® C18 column (3.5 μm, 4.6×150 mm) with acetonitrile:water 50:50 as mobile phase, flow rate at 1 mL/min, injection volume of 10 μL, and terpene detection at 254 nm. […] The quantification of terpenes was done by measuring the peak area and interpolating the concentration using a calibration curve obtained with terpene standards.
Terpenes were mixed with water and YPs from two different manufacturers and incubated at room temperature for 48 hours and encapsulation efficiency of terpenes in YPs was measured as described above after incubation at room temperature for 2 days.
(§1) Dry YPs from two different manufacturers were mixed with water (0.5mL water/g YP) for 30 minutes to obtain a uniform hydrated YP suspension. Limonene was added to the YP sample and incubated at 40° C. for one week to allow for complete limonene loading. Loading efficiency was quantitatively measured by the basic HPLC procedure described above using assay details listed in Table 10 and qualitatively assessed by fluorescence microscopy as described before. Particle diameter was measured as described before.
as §1, with “(0.5 to 2.5 mL” for “(0.5mL”, “Limonene was added to the YP sample and incubated at 40° C. for one week to allow for complete limonene loading.” left out, “12” for “10”, “above.” for “before.”
as §1, with “(2.5 to 5 mL” for “(0.5mL”, “Triallate” for “Limonene”, “3 to 7 days” for “one week”, “complete” for “complete limonene”, “14” for “10”
Dry GLPs/YPs were mixed with water (0.5 to 4.5 mL water g GLP/YP) for 30 minutes to obtain a uniform hydrated YP suspension. THC was added to the GLP/YP sample and incubated at 23° C. for 48 hours to allow for complete THC loading. Loading efficiency was quantitatively measured by the basic HPLC procedure described above using assay details listed in Table 16 and qualitatively assessed by fluorescence microscopy as described above. Particle diameter was measured as described above.
Two different kinds of dry YPs were mixed with water (0.5 to 4.5 mL water/g YP) for 30 minutes to obtain a uniform hydrated YP suspension. λCy was added to the YP sample and incubated at 55° C. for one week to allow for complete λCy loading. Loading efficiency was quantitatively measured by the basic HPLC procedure described above using assay details listed in Table 18 and qualitatively assessed by fluorescence microscopy as described before. Particle diameter was measured as described before.
PTP is highly soluble in acetone and dichloromethane. […]

[2] = Solubility in organic loading and leave-in solvents
[3] = tested on: Candida albicans SC5134; experiment: Antimicrobial microplate assay (MIC 75%); type: cell-based
Method: The antimicrobial activity of YP-GET was evaluated using a modified published microplate assay procedure (Sultanbawa, Y.; Cusack, A.; Currie, M.; Davis, C. An Innovative Microplate Assay to Facilitate the Detection of Antimicrobial 538Activity in Plant Extracts. J. Rapid Meth. Aut. Mic. 2009, 17 (4), 519-534. haps://doi.org/10.111/j.1745-4581.2009.00187.x). Samples of YP-GET were suspended in 100 μL of growth medium (LB 395was used in antibacterial assays and YPD in antifungal assays) and added to the first row 396 (Row A) of a 96-well plate (all wells in the 96-well plate contain additional 100 μL medium). Serial dilutions (1:1) were performed by transferring 100 μL from Row A to Row B, etc., and finally removing 100 μL from Row H. Diluted Escherichia coli Top10 (Invitrogen, Carlsbad CA), Staphylococcus aureus ATCC 19636 or Candida albicans SC5134 cells (100 μL, […]) were added to all wells of the plate. Initial (t=0) and final (t=16 h, 37° C.) absorbance readings were taken at 650 nm.

[4] = tested on: H. pylori; conditions: concentration of 2 mg/L; cited from earlier work
[5] = tested on: C. albicans; conditions: cited from earlier work
[6] = tested on: S. cerevisiae; conditions: cited from earlier work
[7] = cited from earlier work; for water/octanol partition coefficient (log P): chemical and physical properties tables
[8] = cited from earlier work
[9] = Payload release from YPs upon dilution in water (HPLC of supernatant); type: physicochemical
Method: Sustained payload release from YPs occurs by payload diffusion out of the particles and is a function of the payload's solubility in water. […] Samples were incubated at room temperature. Amount of triallate released from the particles into the supernatant was quantified by HPLC as described before.
λCy-YP samples loaded at a w/w λCy:YP ratio of 1:1 were diluted in water ±surfactant (1% w/v IGEPAL) at target λCy concentrations of 0.001, 0.01, 0.1 and 1 mg/mL. Samples were incubated at room temperature for 3 hours. Supernatant was collected to measure amount of λCy released from the particles. The amount of λCy was quantified by HPLC as described above.
PTP-YP samples prepared without leave in solvent or with leave-in solvent GET424 or DMDA. Samples carrying PTP:YP weight ratio 1:1, PTP:GET:YP ratio of 1:1:1 or PTP:DMDA:YP ratio of 1:1:1 were diluted in water at a target PTP concentration of 0.001, 0.01, 0.1 and 1 mg/mL. Samples were incubated at room temperature. Supernatant was collected to measure amount of payload released from the particles.

[10] = physchem; conditions: organic solvent or mixture
[11] = Table 21, cited from earlier work
[12] = chemical and physical properties tables

C=C(C)[C@@H]1CCC(C)=C[C@H]1c1c(O)cc(CCCCC)cc1O [CBD, cannabidiol]
encapsulation efficiency ([1]; 3:1 (CBD+OA):GLP ratio, OA leave-in solvent): high encapsulation efficiency | encapsulation efficiency ([1]; CBD:YP weight ratios up to 5:1, multiple loading cycles, GLPs): high encapsulation efficiency | solubility ([2]; DMSO, organic solvent or mixture): 200000 µg/mL (≈ 636 mM) | solubility ([2]; GET424, organic solvent or mixture): 10000 µg/mL (≈ 31.8 mM) | CBD Solubility Ethanol ([2]; ethanol): Miscible at 1:1 weight ratio* | CBD Solubility Methanol ([2]; methanol): Miscible at 1:1 weight ratio* | CBD Solubility Octanoic Acid (OA) ([2]; octanoic acid): Miscible at 0.5:1 CBD:OA ratio

OC(Cn1cncn1)(Cn1cncn1)c1ccc(F)cc1F [Fluconazole]
fold lower concentration than YP GET to reach MIC 75% [3]: 10 fold

CC(C)=CCC/C(C)=C/CO [Geraniol]
in vitro growth of H. pylori [4]: inhibited | growth of C. albicans strains [5]: inhibit the growth | growth of S. cerevisiae strains [6]: inhibit the growth | Log P ([7]; water/octanol, Table 2): 3.56 | Maximum solubility in water ([8]; Table 1): 686 µg/mL | Solubility in Water ([8]; Table 2): 686 µg/mL (≈ 4.45 mM) | Maximum solubility in water ([8]; terpenes in the GET composition): 686 µg/mL

CC1(C)C(/C=C(\Cl)C(F)(F)F)[C@H]1C(=O)O[C@H](C#N)c1cccc(Oc2ccccc2)c1 (stereo partly drawn) [Lambda cyhalotrin]
payload encapsulation ([1]; λCy:YP ratios up to 5:1, no solvent): 77-90% | λCy release from YPs ([9]; dilution to 0.001 mg λCy/mL, λCy:YP 1:1, 3 hours room temperature): over 80% | Log P ([7]; Table 1): 7.0 | water/octanol partition coefficient (log P) [7]: 7.0 | Maximum solubility in water ([8]; Table 1): 0.005 µg/mL | Solubility in Water [8, 12]: 2.8 µg/mL (≈ 0.00622 mM)

C=C(C)[C@H]1CC=C(C)CC1 [Limonene]
loading efficiency ([1]; limonene:YP ratio of 3:1, both types of YPs): high efficiency

CC(C)CC(C)c1sccc1NC(=O)c1cn(C)nc1C(F)(F)F (stereo not drawn) [PTP, Penthiopyrad]
PTP release from YPs ([9]; DMDA leave-in solvent, PTP:DMDA:YP 1:1:1): improved release at 0.1 and 0.01 mg PTP/mL | PTP release from YPs ([9]; GET424 leave-in solvent, PTP:GET:YP 1:1:1): improved release at 0.01 mg PTP/mL | PTP release from YPs ([9]; without a leave-in solvent, PTP:YP 1:1): released from YPs only at a concentration above maximum solubility in water | solubility [10]: 200000 µg/mL (≈ 556 mM)

CCCCCc1cc(O)c2c(c1)OC(C)(C)[C@@H]1CCC(C)=C[C@@H]21 [Tetrahydrocannabinol (THC), Tetrahydrocannabinol, reference compound]
loading efficiency ([1]; THC:YP ratio of up to 5:1): high efficiency | Log P ([7]; Table 1): 5.9 | water/octanol partition coefficient (log P) [7]: 5.9 | Maximum solubility in water ([8]; Table 1): 2.8 µg/mL | Solubility in Water [8, 12]: 2.8 µg/mL (≈ 0.0089 mM)

CC(C)N(C(=O)SCC(Cl)=C(Cl)Cl)C(C)C [Triallate]
triallate located inside YPs ([1]; triallate:YP w/w ratios up to 4:1, no solvent): 94 -100% | release of triallate from the YP ([9]; dilution to 0.001 mg/mL, triallate:YP 3:1 and 4:1): ~100%

OC(Cc1ccccc1Cl)(Cn1nc[nH]c1=S)C1(Cl)CC1 (stereo not drawn) [prothioconazole]
encapsulation efficiency ([1]; PRO:YP ratios up to 3:1, three loading cycles, acetone): more than 83% | water/octanol partition coefficient (log P) [7]: 4.05 | Solubility Water ([8]; Table 21): 22.5 µg/mL (≈ 0.0654 mM) | Solubility DMSO ([11]; DMSO): 126000 µg/mL (≈ 366 mM) | Solubility Acetone ([11]; acetone): 444000 µg/mL (≈ 1290 mM) | Solubility Ethyl acetate ([11]; ethyl acetate): 220000 µg/mL (≈ 639 mM)

Clomazone
clomazone located inside YPs ([1]; clomazone:YP w/w ratios up to 5:1, no solvent): 96-100% | Log P ([7]; Table 1): 2.5 | water/octanol partition coefficient (log P) [7]: 2.5
